Source: patent publication US20230190677A1, “PHARMACEUTICAL COMPOSITION FOR PREVENTING OR TREATING AGING-RELATED DISEASES” (INDUSTRY ACADEMIC COOPERATION FOUNDATION CHOSUN UNIVERSITY, priority 2021, published 2023)

Legend:
[1] = system: p53, p16, and p21; experiment: Immunoblotting of senescence markers, oxidative stress-induced senescence; type: cell-based, human; conditions: double time H2O2 treated hBM-MSCs, Lico D 1 μg/mL 72 h (FIGS. 3A-3D)
Protocol: (§1) H2O2 was used to induce oxidative stress-induced cell cycle arrest and senescence. Briefly, the cells were exposed to 200 μM H2O2 for 2 h and cultured for 2 d without H2O2. In the second treatment with H2O2, the cells were split 1:3, exposed to 200 μM H2O2 for 2 h, and cultured with either normal media (control), Lico D (1 μg/mL), ascorbic acid (500 μM AA; a positive control), or the compound C (0.5 μM; AMPK inhibitor) for 72 h. Cellular senescence was confirmed by SA-β-gal assay and Western blotting as described below.
(§2) Total proteins were extracted with RIPA (radioimmunoprecipitation) lysis buffer system containing phenylmethylsulfonyl fluoride (PMSF), sodium orthovanadate (Na3VO4), and protease inhibitor cocktail (Santa Cruz Biotechnology) at 4° C. for 30 min, and the samples were centrifuged (spun down) at 16,000×g for 20 min. The total protein concentration was quantified using the Pierce BCA Protein Assay Kit (Thermo Fisher Scientific). Proteins (30-50 μg) were loaded and separated via sodium dodecyl sulphate-polyacrylamide gel electrophoresis (SDS-PAGE) gel electrophoresis, followed by blotting on a PVDF membrane (GE Healthcare, Germany). The membranes were blocked with 1% blocking solution containing non-fat dry milk in TBST for 1 h 30 min at RT to prevent non-specific binding of primary antibodies. […]

[2] = system: p53 and p21; experiment: Immunoblotting of senescence markers in heart and hippocampus tissues of D-Gal induced aging mice; type: in vivo, C57BL/6 mice
Protocol: as §2, with “antibodies. Subsequently, the membranes were incubated overnight at 4° C. with the corresponding primary antibodies. Secondary antibodies were conjugated with horseradish peroxidase and visualized using an enhanced chemiluminescence detection kit (GE Healthcare).” for “antibodies.”
(§3) Six-week-old male C57BL/6 mice (weighing 22±2 g) were purchased from Samtako Bio Korea Co., Ltd. (Osan, Gyeonggi, Korea) and maintained at 23-25° C. under a 12-h light and 12-h dark cycle with free access to food and water in a pathogen-free facility. […] Body weight was measured every week until the end of the experiment. […]

[3] = system: hBM-MSCs; experiment: MTT cell viability assay (protective effect against H2O2); type: cell-based, human; conditions: hBM-MSCs pre-treated with 1 μg/mL for 12 h, then H2O2 0-1 mM for 1 h (FIG. 1B)
Protocol: (§4) Human bone marrow derived mesenchymal stem cells (hBM-MSCs) were acquired from Cell Engineering for Origin (CEFO), Seoul, Korea. The cells were free from bacterial, viral, and mycoplasmal contamination. […] The cells were grown in Dulbecco's modified Eagle medium (DMEM) (Gibco, Life Technologies, Grand Island, N.Y., USA) supplemented with 10% FBS (Gibco, Life Technologies, USA), L-glutamine, and 1% penicillin/streptomycin solution (Lonza, Walkersville, Md., USA). The cells were manipulated under sterile conditions in a humidified incubator at 37° C. with 5% CO2 and 95% air. The cells were subcultured as soon as they reached confluence. The cells were serially monitored under bright field microscopy (Nikon Eclipse TS100; Tokyo, Japan), and the media was changed every 3 d.
(§5) The cytotoxic and protective effects of Lico D in hBM-MSCs were determined using the methylthiazolyldiphenyl-tetrazolium bromide (MTT) test, according to the manufacturer's instructions. To check the cytotoxic effect, hBM-MSCs were grown in a 96-well plate at a density of 8×10^3 cells per well. […] Cell viability was assessed using a spectrophotometer (Multiskan FC, Thermo Fisher Scientific). […] Following H2O2 treatment, cells were treated with MTT solution for 2 h, and cell viability was evaluated.

[4] = system: hBM-MSCs; experiment: Detection of intracellular ROS (DCFH-DA); type: cell-based, human; conditions: hBM-MSCs pretreated 1 μg/mL 12 h, H2O2 0.7 mM 1 h, vs H2O2 alone (FIGS. 1C, 1D)
Protocol: (§6) To quantify the production of intracellular ROS, we used cell permeable substrate 2′,7′-dichlorofluorescin diacetate (DCFH-DA), which can be converted to highly detectable fluorescent 2′,7′-dichlorofluorescein upon oxidation. The cells were cultured in 12-well plates and 96-well plates for 24 h. After 24 h of culture, the cells were treated with 1 μg/mL of Lico D for 12 h and incubated with 20 μM DCFH-DA for 30 min. The cells were then washed with a phosphate-buffered saline (PBS) solution and incubated with H2O2 (0.7 mM) for 1 h at 37° C. The cells were then fixed with 4% paraformaldehyde at room temperature (RT) for 15 min and the nuclei were stained with Hoechst. Then, the cells were observed under a fluorescent microscope (Nikon Eclipse Ti2; Japan), and the images were captured (Nikon DS-Ri2; Japan) and analyzed using the Image J software. To analyze the apoptotic markers, the cells were pretreated with 1 μg/mL of Lico D followed by incubation with H2O2 (0.7 mM) for 1 h at 37° C., and then the proteins were isolated as described below.

[5] = system: AMPK; experiment: Immunoblotting of AMPK activation in heart and hippocampus tissues of D-Gal induced aging mice; type: in vivo, C57BL/6 mice
Protocol: as §2, with “antibodies. Subsequently, the membranes were incubated overnight at 4° C. with the corresponding primary antibodies. Secondary antibodies were conjugated with horseradish peroxidase and visualized using an enhanced chemiluminescence detection kit (GE Healthcare).” for “antibodies.”
as §3

[6] = system: LC3, BECN1, SQSTM1; experiment: Immunoblotting of autophagy markers, oxidative stress-induced senescence; type: cell-based, human
Protocol: as §1
(§7) Total proteins were extracted with RIPA (radioimmunoprecipitation) lysis buffer system containing phenylmethylsulfonyl fluoride (PMSF), sodium orthovanadate (Na3VO4), and protease inhibitor cocktail (Santa Cruz Biotechnology) at 4° C. for 30 min, and the samples were centrifuged (spun down) at 16,000×g for 20 min. The total protein concentration was quantified using the Pierce BCA Protein Assay Kit (Thermo Fisher Scientific). Proteins (30-50 μg) were loaded and separated via sodium dodecyl sulphate-polyacrylamide gel electrophoresis (SDS-PAGE) gel electrophoresis, followed by blotting on a PVDF membrane (GE Healthcare, Germany). The membranes were blocked with 1% blocking solution containing non-fat dry milk in TBST for 1 h 30 min at RT to prevent non-specific binding of primary antibodies. Subsequently, the membranes were incubated overnight at 4° C. with the corresponding primary antibodies. Secondary antibodies were conjugated with horseradish peroxidase and visualized using an enhanced chemiluminescence detection kit (GE Healthcare). Densitometry analysis was performed using the ImageJ software.

[7] = system: RAGE; experiment: qRT-PCR of RAGE in D-Gal induced aging mice; type: in vivo, C57BL/6 mice; conditions: hippocampus, Lico D 0.5 mg/kg/day i.p. vs D-Gal treated mice (FIG. 5C)
Protocol: (§8) Six-week-old male C57BL/6 mice (weighing 22±2 g) were purchased from Samtako Bio Korea Co., Ltd. (Osan, Gyeonggi, Korea) and maintained at 23-25° C. under a 12-h light and 12-h dark cycle with free access to food and water in a pathogen-free facility. All animal experiments were approved by the Institutional Animal Care and Use Committee of Chosun University (CIACUC2020-S0009). After a week of acclimation, the animals were randomly divided into three groups (four mice per group): normal control group (PBS alone), D-Galactose model group (150 mg/kg/day), and D-Galactose +Lico D (0.5 mg/kg/day). The mice were intraperitoneally injected with either PBS or D-Gal for 10 weeks and from the third week onwards, the mice were intraperitoneally injected with Lico D for 8 weeks (FIG. 5A). Body weight was measured every week until the end of the experiment. Thereafter, the MWM (Morris water maze) test was performed for one week.
RNAisoPlus (Takara) was used to isolate total RNA from the hippocampus and heart tissues. Total RNA (2.5 μg) was then reverse-transcribed using PrimescriptTM II 1st strand cDNA synthesis kit (Takara) and quantified using the Power SYBR Green PCR Master mix (Applied BioSystems). To amplify β-actin and RAGE, the mouse primers in Table 1 below were used. […]

[8] = system: human melanoma, oral squamous cell carcinoma and lung adenocarcinoma; conditions: previously reported; cited from earlier work
[9] = system: hBM-MSCs; experiment: Senescence-associated β-galactosidase (SA-β-gal) staining, oxidative stress-induced senescence; type: cell-based, human; conditions: double time 200 μM H2O2 treated hBM-MSCs (40% without treatment); Lico D 1 μg/mL or ascorbic acid 500 μM for 72 h (FIG. 2C)
Protocol: as §1
Senescence-associated β-galactosidase positive cells were identified using an SA-β-gal assay kit (Cell Signaling Technology, Danvers, Mass., USA) according to the manufacturer's instructions. Briefly, after 72 h of treatment, cells were washed with phosphate-buffered saline (PBS) and fixed with 1× fixative for 10-15 min at room temperature. The β-galactosidase staining solution (pH 6.0) was added to the plates and incubated overnight in a dry incubator at 37° C. without CO2. The next day, the β-Gal positive cells were observed under a light microscope (Nikon Eclipse TS100; Tokyo, Japan) and captured using a Canon i-Solution IMTcam3 digital camera (Tokyo, Japan).

[10] = system: AMPK; experiment: Immunoblotting of AMPK activation, oxidative stress-induced senescence; type: cell-based, human
Protocol: as §1, §2

[11] = system: LC3 II, BECN1 and SQSTM1; experiment: Immunoblotting of autophagy markers in heart tissue of D-Gal induced aging mice; type: in vivo, C57BL/6 mice; conditions: Lico D 0.5 mg/kg/day i.p. vs D-Gal-treated mice (FIGS. 8A-8D)
Protocol: as §7, with “Densitometry analysis was performed using the ImageJ software.” left out
as §3

[12] = Body weight in D-Gal induced aging mice; type: in vivo, C57BL/6 mice; conditions: D-Gal 150 mg/kg/day i.p. 10 weeks, Lico D 0.5 mg/kg/day i.p. 8 weeks, measured weekly (FIG. 5B)
Protocol: as §8

[13] = system: D-Gal induced aging mice; experiment: Morris water maze (MWM) test in D-Gal induced aging mice; type: in vivo, C57BL/6 mice
Protocol: as §8

[14] = system: hBM-MSCs; experiment: MTT cell viability assay (cytotoxic effect); type: cell-based, human; conditions: Lico D 0-8 μg/mL for 12 h, MTT (FIG. 1A)
Protocol: as §4, §5

[15] = system: p53 and cleaved caspase 3; experiment: Immunoblotting of apoptotic markers after H2O2; type: cell-based, human; conditions: hBM-MSCs pretreated 1 μg/mL, H2O2 0.7 mM 1 h, vs H2O2 alone (FIG. 1E)
Protocol: as §6, with “To analyze the apoptotic markers, the cells were pretreated with 1 μg/mL of Lico D followed by incubation with H2O2 (0.7 mM) for 1 h at 37° C., and then the proteins were isolated as described below.” left out
Total proteins were extracted with RIPA (radioimmunoprecipitation) lysis buffer system containing phenylmethylsulfonyl fluoride (PMSF), sodium orthovanadate (Na3VO4), and protease inhibitor cocktail (Santa Cruz Biotechnology) at 4° C. for 30 min, and the samples were centrifuged (spun down) at 16,000×g for 20 min. The total protein concentration was quantified using the Pierce BCA Protein Assay Kit (Thermo Fisher Scientific). […]

[16] = oxidative stress-induced senescent hBM-MSCs, Lico D 1 μg/mL (FIGS. 4A-4D)

COc1c(/C=C/C(=O)c2ccc(O)c(CC=C(C)C)c2)ccc(O)c1O [Lico D, Licochalcone D]
expression of senescence markers p53, p16, and p21 [1]: reduced | expression levels of p53 and p21, heart ([2]; heart tissue, Lico D 0.5 mg/kg/day i.p. vs D-Gal-injected mice (FIGS. 7A-7C)): significantly reduced | expression levels of p53 and p21, hippocampus ([2]; hippocampus tissue, Lico D 0.5 mg/kg/day i.p. vs D-Gal-injected mice (FIGS. 7F-7H)): significantly reduced | cell viability under H2O2 oxidative stress [3]: significantly increased | intracellular ROS levels [4]: significantly reduced | AMPK activation, heart ([5]; heart tissue, Lico D 0.5 mg/kg/day i.p. vs D-Gal treatment (FIGS. 7D, 7E)): significantly increased | AMPK activation, hippocampus ([5]; hippocampus tissue, Lico D 0.5 mg/kg/day i.p. vs D-Gal treatment (FIGS. 7I, 7J)): significantly increased | expression levels of LC3 and BECN1 [6, 16]: significantly increased | expression of SQSTM1 [6, 16]: decreased | RAGE expression at the mRNA level [7]: significantly reduced | anticancer activity [8]: anticancer activity in a dose-dependent manner | number of SA-β-gal-positive cells [9]: 13% | AMPK activation (pAMPK/AMPK) ([10]; oxidative stress-induced senescent hBM-MSCs, Lico D 1 μg/mL 72 h (FIGS. 3E, 3F)): significantly restored | expression of autophagy markers (LC3 II, BECN1 and SQSTM1) [11]: markedly increased | body weight [12]: No significant differences | number of times of target platform crossing (MWM) ([13]; Lico D 0.5 mg/kg/day i.p. vs D-Gal treated mouse (FIG. 6C)): tendency of increasing | escape latency (MWM) ([13]; Lico D 0.5 mg/kg/day i.p. vs D-Gal treated mouse, similar to control (FIG. 6A)): markedly short time | duration in target quadrant (MWM) ([13]; Lico D 0.5 mg/kg/day i.p. vs D-Gal treated mouse, similar to control (FIG. 6B)): significantly longer time | cell viability [14]: no significant changes in cell viability | expression of apoptotic proteins p53 and cleaved caspase 3 [15]: reduced

O=C1O[C@H]([C@@H](O)CO)C(O)=C1O [ascorbic acid, reference compound]
number of SA-β-gal-positive cells [9]: 17%

c1cc(-c2cnn3cc(-c4ccc(OCCN5CCCCC5)cc4)cnc23)ccn1 [CC, reference compound]
AMPK-mediated autophagy upon treatment with CC ([6]; senescent hBM-MSCs, compound C 0.5 μM with Lico D (FIGS. 4A-4D)): inhibited | Lico D-mediated AMPK activation upon treatment with CC ([10]; senescent hBM-MSCs, compound C 0.5 μM with Lico D (FIGS. 3E, 3F)): abolished
